Where two headings read alike, the source gives them in different places.

Series [1] relates to HCV genotype 2a (Huh7.5-J6/JFH1). The series is described as follows: microbe, parasite or virus in culture. Conditions: for EC50: Hepatitis C virus. The text has this: We previously synthesized and characterized twelve DGAT inhibitors with a different DGAT specificity. […] A922500, a commercially available DGAT-1-specific inhibitor was used as a positive control. In spite of a wealth of knowledge on an essential role of DGAT-1 in the HCV particle assembly and production, less attention has been paid to potential functions of DGATs in other steps of the viral life cycle. Therefore, we decided to examine effects of these twelve DGAT inhibitors on HCV particle production as well as RNA genome replication in parallel. For this purpose, we transfected Huh7.5 cells with in vitro-transcribed genotype 2a HCV RNAs (Huh7.5-J6/JFH1) and treated them with each DGAT inhibitor for 6 and 72 h at 10 μM. HCV genome replication as well as host GAPDH RNA levels was quantitated by a real-time RT-PCR analysis. For assessment of HCV particle production, we harvested and filtered the supernatant from Huh7.5-J6/JFH1 cells treated with DGAT inhibitors and incubated the supernatant with naïve huh7.5 cells for 72 h. Then, infectivity was measured by a real-time RT-PCR analysis.
Quantitative real-time RT-PCR analysis to measure levels of HCV RNA and GAPDH was conducted as previously described. The cDNA synthesis and reverse transcription of miR-122 were performed by using Taqman quantitative RT-PCR (qRT-PCR) analysis. Taqmanq RT-PCR components including TaqMan miR122 probe, endogenous control U6 probe, TaqMan® MicroRNA reverse transcription Kit and TaqMan® universal master mix II were purchased from Thermo Fisher Scientific (Waltham, MA, USA)
Huh7.5-J6/JFH-1 cells were seeded into 6-well plates at a density of 3 × 10^5 cells per well with DMEM containing 10% FBS. After 24 h, they are incubated with either DMSO, increasing concentrations of 10j for 3, 6, 12, 24, 48, and 72 h, or increasing concentrations of A922500 for 6, 12, 24, 48, and 72 h. Total RNAs were extracted from treated cells and virus-containing media were harvested at each time point. Naïve Huh7.5 cells were infected with these virus-containing media after concentration with centricons. Total RNAs were extracted from Huh7.5 cells infected with virus-containing media. qRT-PCR analysis was performed to measure effect of 10j on HCV replication and virus particle production.

Another series deals with miR122. The series is described as follows: miR122 RT-PCR in Huh7.5-J6/JFH1 cells. Type of series: cell-based. Particulars: up to 8 μM, 72 h. The text has this: (§1) Since DGATs play an important role in maintaining liver-likeness in hepatocytes, the antiviral effect of 10j might be due to mere loss of this liver-specific character. […] In addition, HNF4α was also reported to be reduced in DGAT1-silenced cell lines. Therefore, we wished to test effects of 10j on HNF4α.

The test system of another series is Huh7.5-J6/JFH1 cells. The series is described as follows: immunofluorescence of dsRNA (J2 antibody) and LD (Oil-Red-O) in Huh7.5-J6/JFH1 cells. In kind it is cell-based, hepatitis C virus. Conditions: increasing concentrations, 72 h.
The next series concerns HNF4α. The series is described as follows: HNF4α western blot in Huh7.5-J6/JFH1 cells. Type of series: cell-based. Particulars: up to 10 μM, 72 h.
From the text: as §1
(In general: Immunoblotting shows a protein as a band on a membrane.)

In general, EC50 refers to the concentration that produces a half-maximal response. For the molecule `O=C(NCc1ccco1)c1ccc2[nH]c(COc3ccc(C45CC6CC(CC(C6)C4)C5)cc3)nc2c1` [10j, 2-{[4-(adamant-1yl)phenoxy]methyl)-N-(furan-2-ylmethyl)-1H-benzo[d]imidazole-5-carboxamide], in series [1] (8 μM, genotype 2a), the “T1/2, time required for reducing the viral RNAs by half” value amounted to 35.8 h. Besides, the “effect on HCV genome replication” value in series [1] (10 μM, 72 h (Figure 1C)) was “able to block both viral RNA genome replication and particle production”. The EC50 in series [1] (3 h, read-out: EC50 on HCV genome replication) was greater than 10000 nM; in series [1] (6 h, read-out: EC50 on HCV genome replication), greater than 10000 nM; in series [1] (12 h, read-out: EC50 on HCV genome replication), 8500 nM; in series [1] (24 h, read-out: EC50 on HCV genome replication), 3000 nM; in series [1] (48 h, read-out: EC50 on HCV genome replication), 3600 nM; in series [1] (72 h, read-out: EC50 on HCV genome replication) it was 2700 nM. Besides, the concentration for a half-maximal effect (EC50) in series [1] (GETYPE2A, 72 h, read-out: EC50 HCV RNA, reporter-free infectious clone) is 1600 nM; in series [1] (GETYPE2A, read-out: EC50 values required for inhibition of the HCV genome replication (summary)), 1000 to 2000 nM. Moreover, the “expression levels of miR122” value with miR122 is “increased levels of miR122”. The “amount of dsRNAs” value with Huh7.5-J6/JFH1 cells is “significantly reduced”. In the series on Huh7.5-J6/JFH1 cells, the “expression level of total LDs (Oil-Red-O)” value was “dose-dependent reduction”. The “expression levels of HNF4α” value in the series with HNF4α is on record as “remained unaltered”.

For the origin of these results see publication PMC6222871, “Suppression of Hepatitis C Virus Genome Replication and Particle Production by a Novel Diacylglycerol Acyltransferases Inhibitor” (Molecules : A Journal of Synthetic Chemistry and Natural …, 2018).
